According to the NIST ThermoML archive (doi:10.1021/je049672l):

Conditions: for mass density: Vibrating tube method; for vapor or sublimation pressure: Closed cell (Static) method

CC(C)C [2-methylpropane]
Fluid (supercritical or subcritical phases)
Conditions | mass density [kg/m3]
240 K, 484.1 kPa | 617.68
240 K, 1027.4 kPa | 618.3
240 K, 1538.4 kPa | 618.86
240 K, 2037.8 kPa | 619.41
240 K, 2522.8 kPa | 619.95
240 K, 3029.3 kPa | 620.49
240 K, 3501.9 kPa | 621
240 K, 4038.4 kPa | 621.58
240 K, 4542.1 kPa | 622.1
240 K, 5022.8 kPa | 622.62
240 K, 5522.1 kPa | 623.14
240 K, 5987.3 kPa | 623.62
240 K, 6540.8 kPa | 624.19
240 K, 7010.9 kPa | 624.66
260 K, 517.1 kPa | 595.93
260 K, 947.4 kPa | 596.52
260 K, 1503.8 kPa | 597.28
260 K, 1984.7 kPa | 597.94
260 K, 2532 kPa | 598.66
260 K, 3005.3 kPa | 599.28
260 K, 3472.2 kPa | 599.9
260 K, 4015.9 kPa | 600.6
260 K, 4464.7 kPa | 601.16
260 K, 4915.7 kPa | 601.73
260 K, 5481.6 kPa | 602.44
260 K, 5953.7 kPa | 603.05
260 K, 6532 kPa | 603.75
260 K, 7031.7 kPa | 604.37
280 K, 512.2 kPa | 573.26
280 K, 996 kPa | 574.1
280 K, 1532.9 kPa | 575.01
280 K, 2000.6 kPa | 575.8
280 K, 2508.1 kPa | 576.64
280 K, 2999.4 kPa | 577.44
280 K, 3506 kPa | 578.27
280 K, 4015.2 kPa | 579.09
280 K, 4460.5 kPa | 579.8
280 K, 4938.8 kPa | 580.54
280 K, 5494.5 kPa | 581.39
280 K, 5986.9 kPa | 582.16
280 K, 6507.2 kPa | 582.93
280 K, 6980.4 kPa | 583.64
300 K, 476.5 kPa | 548.51
300 K, 1017.6 kPa | 549.71
300 K, 1462.4 kPa | 550.7
300 K, 1999.9 kPa | 551.86
300 K, 2533.3 kPa | 552.99
300 K, 3021.3 kPa | 554.01
300 K, 3526.2 kPa | 555.05
300 K, 3965.8 kPa | 555.93
300 K, 4482.8 kPa | 556.96
300 K, 4980.2 kPa | 557.93
300 K, 5467.8 kPa | 558.87
300 K, 5953.2 kPa | 559.79
300 K, 6460.3 kPa | 560.72
300 K, 7025.2 kPa | 561.79
320 K, 1063 kPa | 522.78
320 K, 1503.5 kPa | 524.1
320 K, 2072.9 kPa | 525.74
320 K, 2548.7 kPa | 527.08
320 K, 3037.4 kPa | 528.43
320 K, 3521.6 kPa | 529.72
320 K, 4027.5 kPa | 531.05
320 K, 4496.4 kPa | 532.26
320 K, 4946.7 kPa | 533.39
320 K, 5450.3 kPa | 534.62
320 K, 5960.5 kPa | 535.86
320 K, 6511.5 kPa | 537.15
320 K, 6995.3 kPa | 538.27
340 K, 1494.6 kPa | 493.98
340 K, 2007.1 kPa | 496.16
340 K, 2499.6 kPa | 498.13
340 K, 3002.8 kPa | 500.07
340 K, 3503.8 kPa | 501.94
340 K, 4023.8 kPa | 503.83
340 K, 4507.3 kPa | 505.51
340 K, 5017.1 kPa | 507.23
340 K, 5520.7 kPa | 508.89
340 K, 5998.3 kPa | 510.42
340 K, 6512.9 kPa | 512.03
340 K, 6962.7 kPa | 513.39
360 K, 2008.5 kPa | 460.57
360 K, 2503.6 kPa | 463.81
360 K, 2997.5 kPa | 466.82
360 K, 3502.9 kPa | 469.71
360 K, 4027.6 kPa | 472.55
360 K, 4532.2 kPa | 475.11
360 K, 5024.7 kPa | 477.51
360 K, 5482.2 kPa | 479.63
360 K, 6006.8 kPa | 481.96
360 K, 6485.4 kPa | 484.01
360 K, 6987.7 kPa | 486.08
380 K, 2517.9 kPa | 417.11
380 K, 3027.5 kPa | 423.54
380 K, 3511 kPa | 428.79
380 K, 4014.9 kPa | 433.63
380 K, 4487.2 kPa | 437.71
380 K, 4990.6 kPa | 441.69
380 K, 5519.1 kPa | 445.53
380 K, 6019.7 kPa | 448.91
380 K, 6503.3 kPa | 451.96
380 K, 6952.1 kPa | 454.64

Liquid
Conditions | mass density [kg/m3] | vapor or sublimation pressure [kPa]
240 K | 617.17 | 40.1
260 K | 595.32 | 94.6
280 K | 572.74 | 197.8
300 K | 548.27 | 368.6
320 K | 521.48 | 632.5
340 K | 491.87 | 1013.7
360 K | 457.33 | 1541.6
380 K | 413.34 | 2250.4
